# According to patent US20250213555A1, “SUBSTITUTED TETRAHYDROFURAN ANALOGS AS MODULATORS OF SODIUM CHANNELS” (VERTEX PHARMACEUTICALS INCORPORATED, priority 2021, published 2025):
# Molecular target: human Nav 1.8 (Homo sapiens, UniProt Q9Y5Y9)
# Test: E-VIPR assay detecting and measuring Nav inhibition properties
# Format: cell-based
# Settings: HEK cells expressing a truncated form of human Nav 1.8; compound numbers without "*" (not marked as run in the presence of human serum); read-out: measured IC50 value in the E-VIPR Assay
# Procedure, shortened: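 Nav inhibition was read by E-VIPR: cells were electrically stimulated while coumarin/oxonol FRET emissions were recorded. Cells were HEK expressing a truncated human Nav 1.8 and co-transduced with KIR2.1, and were assayed in 25% final human serum.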
# human Nav 1.8, sequence (Q9Y5Y9 126-399 limits assumed): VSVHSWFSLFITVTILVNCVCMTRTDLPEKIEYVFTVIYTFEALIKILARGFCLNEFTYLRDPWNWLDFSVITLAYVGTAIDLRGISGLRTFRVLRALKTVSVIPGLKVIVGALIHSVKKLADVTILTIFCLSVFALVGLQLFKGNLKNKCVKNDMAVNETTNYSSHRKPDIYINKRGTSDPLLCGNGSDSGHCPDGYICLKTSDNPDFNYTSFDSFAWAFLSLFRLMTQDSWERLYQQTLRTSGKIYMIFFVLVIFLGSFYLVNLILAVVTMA
# human Nav 1.8, sequence (Q9Y5Y9 660-890 limits assumed): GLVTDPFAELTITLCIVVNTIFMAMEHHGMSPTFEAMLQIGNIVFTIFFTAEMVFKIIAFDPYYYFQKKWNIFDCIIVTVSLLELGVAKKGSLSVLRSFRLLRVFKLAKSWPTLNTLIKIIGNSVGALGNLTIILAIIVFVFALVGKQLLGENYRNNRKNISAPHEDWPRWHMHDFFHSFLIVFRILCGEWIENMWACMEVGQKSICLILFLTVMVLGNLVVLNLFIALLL
# human Nav 1.8, sequence (Q9Y5Y9 1148-1722 limits assumed): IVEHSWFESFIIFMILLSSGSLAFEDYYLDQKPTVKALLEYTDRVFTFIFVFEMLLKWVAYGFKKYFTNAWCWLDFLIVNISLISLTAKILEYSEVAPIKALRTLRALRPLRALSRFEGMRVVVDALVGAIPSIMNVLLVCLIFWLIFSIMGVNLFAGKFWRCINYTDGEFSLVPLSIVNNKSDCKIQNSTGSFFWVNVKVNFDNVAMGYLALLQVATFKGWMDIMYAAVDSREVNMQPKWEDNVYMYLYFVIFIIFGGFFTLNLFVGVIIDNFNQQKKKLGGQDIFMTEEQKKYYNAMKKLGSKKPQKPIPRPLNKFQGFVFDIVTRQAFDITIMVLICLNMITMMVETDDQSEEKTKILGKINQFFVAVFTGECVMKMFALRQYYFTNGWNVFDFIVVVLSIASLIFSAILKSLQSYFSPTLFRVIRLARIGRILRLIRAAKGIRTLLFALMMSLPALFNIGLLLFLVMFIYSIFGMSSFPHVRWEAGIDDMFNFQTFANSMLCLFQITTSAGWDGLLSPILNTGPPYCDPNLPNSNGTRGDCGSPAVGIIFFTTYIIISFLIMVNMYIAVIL
row,SMILES,IC50
1,"COc1c([C@H]2[C@H](C(=O)Nc3cccc(C(=O)N4CCNCC4)n3)O[C@@](C)(C(F)(F)F)[C@H]2C)ccc(F)c1F [Compound 17, (2R,3S,4S,5R)-3-(3,4-difluoro-2-methoxyphenyl)-4,5-dimethyl-N-(6-(piperazine-1-carbonyl)pyridin-2-yl)-5-(trifluoromethyl)tetrahydrofuran-2-carboxamide]",10 to 100 nM
2,"COCCOc1c([C@H]2[C@H](C(=O)Nc3ccnc(C(N)=O)n3)O[C@@](C)(C(F)(F)F)[C@H]2C)ccc(F)c1C (single isomer, unassigned) [Compound 3]",< 10 nM
3,"CC(=O)C1CC(Oc2c([C@H]3[C@H](C(=O)Nc4ccnc(C(N)=O)c4)O[C@@](C)(C(F)(F)F)[C@H]3C)ccc(F)c2F)C1 (stereo partly drawn) [Compound 170, 4-((2R,3S,4S,5R)-3-(2-(3-acetylcyclobutoxy)-3,4-difluorophenyl)-4,5-dimethyl-5-(trifluoromethyl)tetrahydrofuran-2-carboxamido)picolinamide]",< 10 nM
4,"CNC(=O)c1cc(NC(=O)[C@@H]2O[C@@](C)(C(F)(F)F)[C@@H](C)[C@H]2c2ccc(F)c(F)c2OCCO)cc[n+]1[O-] [Compound 84, 4-((2R,3S,4S,5R)-3-(3,4-difluoro-2-(2-hydroxyethoxy)phenyl)-4,5-dimethyl-5-(trifluoromethyl)tetrahydrofuran-2-carboxamido)-2-(methylcarbamoyl)pyridine 1-oxide]",10 to 100 nM
5,"CC1CN(CCOc2c([C@H]3[C@H](C(=O)Nc4ccnc(C(N)=O)c4)O[C@@](C)(C(F)(F)F)[C@H]3C)ccc(F)c2F)CCO1 (stereo partly drawn) [Compound 51, 4-((2R,3S,4S,5R)-3-(3,4-difluoro-2-(2-(2-methylmorpholino)ethoxy)phenyl)-4,5-dimethyl-5-(trifluoromethyl)tetrahydrofuran-2-carboxamido)picolinamide]",< 10 nM
6,"C[C@H]1[C@@H](c2ccc(F)c(F)c2OCCN2CC3(CCOC3)C2)[C@H](C(=O)Nc2ccnc(C(=O)N3CC4(CCOC4)C3)c2)O[C@@]1(C)C(F)(F)F [Compound 123, (2R,3S,4S,5R)-3-(2-(2-(6-oxa-2-azaspiro[3.4]octan-2-yl)ethoxy)-3,4-difluorophenyl)-N-(2-(6-oxa-2-azaspiro[3.4]octane-2-carbonyl)pyridin-4-yl)-4,5-dimethyl-5-(trifluoromethyl)tetrahydrofuran-2-carboxamide]",≥ 1000 nM
7,"C[C@H]1[C@@H](c2ccc(F)c(F)c2OCCN2C[C@H]3COC[C@H]3C2)[C@H](C(=O)Nc2ccnc(C(N)=O)c2)O[C@@]1(C)C(F)(F)F [Compound 55, 4-((2R,3S,4S,5R)-3-(3,4-difluoro-2-(2-((3aR,6aS)-tetrahydro-1H-furo[3,4-c]pyrrol-5(3H)-yl)ethoxy)phenyl)-4,5-dimethyl-5-(trifluoromethyl)tetrahydrofuran-2-carboxamido)picolinamide]",< 10 nM
8,"C[C@H]1[C@@H](c2ccc(F)c(F)c2OCC2(C)COC2)[C@H](C(=O)Nc2ccnc(C(N)=O)c2)O[C@@]1(C)C(F)(F)F [Compound 63, 4-((2R,3S,4S,5R)-3-(3,4-difluoro-2-((3-methyloxetan-3-yl)methoxy)phenyl)-4,5-dimethyl-5-(trifluoromethyl)tetrahydrofuran-2-carboxamido)picolinamide]",10 to 100 nM
9,Cc1cnc(C(N)=O)cc1NC(=O)C1OC(C)(C(F)(F)F)C(C)C1c1ccc(F)c(F)c1OC1CC(O)C1 (stereo not shown) [Compound 203],10 to 100 nM
10,"COc1c([C@H]2[C@H](C(=O)Nc3ccnc(C(=O)N4CCN(C)CC4)c3)O[C@@](C)(C(F)(F)F)[C@H]2C)ccc(F)c1F [Compound 8, (2R,3S,4S,5R)-3-(3,4-difluoro-2-methoxy-phenyl)-4,5-dimethyl-N-[2-(4-methylpiperazine-1-carbonyl)-4-pyridyl]-5-(trifluoromethyl)tetrahydrofuran-2-carboxamide]",< 10 nM
